Molecular target: STING (Homo sapiens, UniProt Q86WV6, G230A/H232R/R293Q/R71H)
Test: STING reporter assay in THP1-Dual KO-IFNAR2 cells (2′3′cGAMP stimulation, luciferase reporter)
Assay type: cell-based
Conditions: 15 μM 2′3′cGAMP stimulation, 24 h, read-out: Pharmaron, THP1_IFNAR2 STING 24 h Luci Normalized: GeoMean EC50
Outline: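 THP1-Dual KO-IFNAR2 cells (2×10E6 cells/mL) with compounds at 0.0017-100 μM final, stimulated with 15 μM final 2′3′cGAMP delivered by Lipofectamine 2000; 24 h at 37 °C. Luciferase in supernatant read with QUANTI-Luc Plus; EC50 derived from luminescence.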

Chain of STING (Q86WV6 whole entry R71H/G230A/H232R/R293Q): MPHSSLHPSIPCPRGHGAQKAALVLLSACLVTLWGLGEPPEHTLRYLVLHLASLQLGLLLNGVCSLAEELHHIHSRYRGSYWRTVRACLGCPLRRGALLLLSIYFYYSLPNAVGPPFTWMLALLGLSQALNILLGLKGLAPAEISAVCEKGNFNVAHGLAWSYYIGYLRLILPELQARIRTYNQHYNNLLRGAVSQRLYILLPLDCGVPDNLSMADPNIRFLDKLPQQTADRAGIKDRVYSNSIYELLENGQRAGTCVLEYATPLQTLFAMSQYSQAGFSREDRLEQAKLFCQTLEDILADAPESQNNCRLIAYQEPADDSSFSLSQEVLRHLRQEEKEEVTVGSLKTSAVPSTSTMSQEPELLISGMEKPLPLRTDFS

SMILES | EC50
CC(=O)Nc1c(Br)[nH]c2ccc(OCCc3ccc(C(F)(F)F)cc3)cc12 [Compound 402, N-(2-bromo-5-(4-(trifluoromethyl)phenethoxy)-1H-indol-3-yl)acetamide] | 5000 to 100000 nM
COCCOCC(=O)Nc1c[nH]c2ccc(OCc3ccc(C(F)(F)F)cc3)cc12 [Compound 404, 2-(2-methoxyethoxy)-N-(5-((4-(trifluoromethyl)benzyl)oxy)-1H-indol-3-yl)acetamide] | 1000 to 5000 nM
COCCOCC(=O)Nc1c[nH]c2ccc(O[C@H]3C[C@@H](c4ccc(C(F)(F)F)cc4)C3)cc12 [Compound 405, 2-(2-methoxyethoxy)-N-(5-(cis-3-(4-(trifluoromethyl)phenyl)cyclobutoxy)-1H-indol-3-yl)acetamide] | 200 to 1000 nM
COCCOCC(=O)Nc1c[nH]c2ccc(CCOc3ccc(C(F)(F)F)cc3)cc12 [Compound 406, 2-(2-methoxyethoxy)-N-(5-(2-(4-(trifluoromethyl)phenoxy)ethyl)-1H-indol-3-yl)acetamide] | 200 to 1000 nM
COCCOCC(=O)Nc1c[nH]c2ccc(OCCc3ccc(C(F)(F)F)cc3)cc12 [Compound 407, 2-(2-methoxyethoxy)-N-(5-(4-(trifluoromethyl)phenethoxy)-1H-indol-3-yl)acetamide] | 200 to 1000 nM
COCCOCC(=O)Nc1c[nH]c2ccc(OCC[C@@H]3C[C@@H]4CN(CC(F)(F)F)C[C@@H]4C3)cc12 [Compound 408, 2-(2-methoxyethoxy)-N-(5-(2-((3aR,5r,6aS)-2-(2,2,2-trifluoroethyl)octahydrocyclopenta[c]pyrrol-5-yl)ethoxy)-1H-indol-3-yl)acetamide] | 40 to 200 nM
CC(=O)N[C@H]1C[C@@](C)(C(=O)Nc2c[nH]c3ccc(O[C@H]4C[C@@H](c5ccc(C(F)(F)F)cc5)C4)cc23)C1 [Compound 412, cis-3-acetamido-1-methyl-N-(5-(cis-3-(4-(trifluoromethyl)phenyl)cyclobutoxy)-1H-indol-3-yl)cyclobutane-1-carboxamide] | 1000 to 5000 nM
CC(=O)N[C@H]1C[C@](C)(C(=O)Nc2c[nH]c3ccc(O[C@H]4C[C@@H](c5ccc(C(F)(F)F)cc5)C4)cc23)C1 [Compound 413, trans-3-acetamido-1-methyl-N-(5-(cis-3-(4-(trifluoromethyl)phenyl)cyclobutoxy)-1H-indol-3-yl)cyclobutane-1-carboxamide] | 1000 to 5000 nM
C[C@]1(C(=O)Nc2c[nH]c3ccc(OCc4ccc(C(F)(F)F)cc4)cc23)C[C@@H](O)C1 [Compound 414, cis-3-hydroxy-1-methyl-N-(5-((4-(trifluoromethyl)benzyl)oxy)-1H-indol-3-yl)cyclobutane-1-carboxamide] | 200 to 1000 nM
C[C@]1(C(=O)Nc2c[nH]c3ccc(OCc4ccc(C(F)(F)F)cc4)cc23)C[C@H](O)C1 [Compound 415, trans-3-hydroxy-1-methyl-N-(5-((4-(trifluoromethyl)benzyl)oxy)-1H-indol-3-yl)cyclobutane-1-carboxamide] | 1000 to 5000 nM
C[C@]1(C(=O)Nc2c[nH]c3ccc(OCc4ccc(C(F)(F)F)cc4)cc23)C[C@H](CO)C1 [Compound 416, cis-3-(hydroxymethyl)-1-methyl-N-(5-((4-(trifluoromethyl)benzyl)oxy)-1H-indol-3-yl)cyclobutane-1-carboxamide] | 200 to 1000 nM
C[C@]1(C(=O)Nc2c[nH]c3ccc(OCc4ccc(C(F)(F)F)cc4)cc23)C[C@@H](CO)C1 [Compound 417, trans-3-(hydroxymethyl)-1-methyl-N-(5-((4-(trifluoromethyl)benzyl)oxy)-1H-indol-3-yl)cyclobutane-1-carboxamide] | 200 to 1000 nM
C[C@]1(C(=O)Nc2c[nH]c3ccc(OCc4ccc(C(F)(F)F)cc4)cc23)CC[C@H](O)CC1 [Compound 418, trans-4-hydroxy-1-methyl-N-(5-((4-(trifluoromethyl)benzyl)oxy)-1H-indol-3-yl)cyclohexane-1-carboxamide] | 200 to 1000 nM
C[C@]1(C(=O)Nc2c[nH]c3ccc(OCc4ccc(C(F)(F)F)cc4)cc23)CC[C@@H](O)CC1 [Compound 419, trans-4-hydroxy-1-methyl-N-(5-((4-(trifluoromethyl)benzyl)oxy)-1H-indol-3-yl)cyclohexane-1-carboxamide] | 200 to 1000 nM
O=C(Nc1c[nH]c2ccc(O[C@H]3C[C@@H](c4ccc(C(F)(F)F)cc4)C3)cc12)C1(CO)CCC1 [Compound 420, 1-(hydroxymethyl)-N-(5-(cis-3-(4-(trifluoromethyl)phenyl)cyclobutoxy)-1H-indol-3-yl)cyclobutane-1-carboxamide] | 200 to 1000 nM
CC1(C(=O)Nc2c[nH]c3ccc(OCc4ccc(C(F)(F)F)cc4)cc23)CN(CC(F)F)C1 [Compound 421, 1-(2,2-difluoroethyl)-3-methyl-N-(5-((4-(trifluoromethyl)benzyl)oxy)-1H-indol-3-yl)azetidine-3-carboxamide] | 200 to 1000 nM
COCCN1CC(C)(C(=O)Nc2c[nH]c3ccc(O[C@H]4C[C@@H](c5ccc(C(F)(F)F)cc5)C4)cc23)C1 [Compound 422, 1-(2-methoxyethyl)-3-methyl-N-(5-(cis-3-(4-(trifluoromethyl)phenyl)cyclobutoxy)-1H-indol-3-yl)azetidine-3-carboxamide] | 1000 to 5000 nM

SMILES | EC50
C[C@@H]1OC[C@H]1C(=O)Nc1c[nH]c2ccc(O[C@H]3C[C@H](c4ccc(C(F)(F)F)cc4)C3)cc12 [Compound 423, (2S,3R)-2-methyl-N-(5-(trans-3-(4-(trifluoromethyl)phenyl)cyclobutoxy)-1H-indol-3-yl)oxetane-3-carboxamide] | 200 to 1000 nM
C[C@H]1OC[C@H]1C(=O)Nc1c[nH]c2ccc(O[C@H]3C[C@H](c4ccc(C(F)(F)F)cc4)C3)cc12 [Compound 424, (2R,3R)-2-methyl-N-(5-(trans-3-(4-(trifluoromethyl)phenyl)cyclobutoxy)-1H-indol-3-yl)oxetane-3-carboxamide] | 200 to 1000 nM
CO[C@H]1C[C@](C)(C(=O)Nc2c[nH]c3ccc(OCC[C@@H]4C[C@@H]5CN(CC(F)(F)F)C[C@@H]5C4)cc23)C1 [Compound 427, trans-3-methoxy-1-methyl-N-(5-(2-((3aR,5r,6aS)-2-(2,2,2-trifluoroethyl)octahydrocyclopenta[c]pyrrol-5-yl)ethoxy)-1H-indol-3-yl)cyclobutane-1-carboxamide] | 200 to 1000 nM
CC1OC(C)C1C(=O)Nc1c[nH]c2ccc(OCc3ccc(C(F)(F)F)cc3)cc12 (stereo not shown) [Compound 428, 2,4-dimethyl-N-(5-((4-(trifluoromethyl)benzyl)oxy)-1H-indol-3-yl)oxetane-3-carboxamide] | 200 to 1000 nM
CC[C@@H](O)C(=O)Nc1c[nH]c2ccc(O[C@H]3C[C@H](c4ccc(C(F)(F)F)cc4)C3)cc12 [Compound 429, (R)-2-hydroxy-N-(5-(trans-3-(4-(trifluoromethyl)phenyl)cyclobutoxy)-1H-indol-3-yl)butanamide] | 200 to 1000 nM
CC[C@H](O)C(=O)Nc1c[nH]c2ccc(OCCc3ccc(C(F)(F)F)cc3)cc12 [Compound 430, (S)-2-hydroxy-N-(5-(4-(trifluoromethyl)phenethoxy)-1H-indol-3-yl)butanamide] | 40 to 200 nM
CC[C@@H](O)C(=O)Nc1c[nH]c2ccc(OCCc3ccc(C(F)(F)F)cc3)cc12 [Compound 431, (R)-2-hydroxy-N-(5-(4-(trifluoromethyl)phenethoxy)-1H-indol-3-yl)butanamide] | 40 to 200 nM
O=C(CC(O)C(F)(F)F)Nc1c[nH]c2ccc(OCC[C@@H]3C[C@@H]4CN(CC(F)(F)F)C[C@@H]4C3)cc12 (stereo partly drawn) [Compound 433, 4,4,4-trifluoro-3-hydroxy-N-(5-(2-((3aR,5r,6aS)-2-(2,2,2-trifluoroethyl)octahydrocyclopenta[c]pyrrol-5-yl)ethoxy)-1H-indol-3-yl)butanamide] | 200 to 1000 nM
O=C(COCC(F)(F)F)Nc1c[nH]c2ccc(OCC[C@@H]3C[C@@H]4CN(CC(F)(F)F)C[C@@H]4C3)cc12 [Compound 434, 2-(2,2,2-trifluoroethoxy)-N-(5-(2-((3aR,5r,6aS)-2-(2,2,2-trifluoroethyl)octahydrocyclopenta[c]pyrrol-5-yl)ethoxy)-1H-indol-3-yl)acetamide] | 40 to 200 nM
CC(=O)Nc1c[nH]c2ccc(O[C@H]3C[C@H](c4ccc(C(F)(F)F)cc4C)C3)cc12 [Compound 435, N-(5-(trans-3-(2-methyl-4-(trifluoromethyl)phenyl)cyclobutoxy)-1H-indol-3-yl)acetamide] | 40 to 200 nM
CC(=O)Nc1c[nH]c2ccc(OC3CCc4cc(C(F)(F)F)ccc4C3)cc12 (stereo not shown) [Compound 436, N-(5-((6-(trifluoromethyl)-1,2,3,4-tetrahydronaphthalen-2-yl)oxy)-1H-indol-3-yl)acetamide] | 40 to 200 nM
CC(=O)Nc1c[nH]c2ccc(OCC3CCc4ccc(C(F)(F)F)cc4C3)cc12 (stereo not shown) [Compound 437, N-(5-((7-(trifluoromethyl)-1,2,3,4-tetrahydronaphthalen-2-yl)methoxy)-1H-indol-3-yl)acetamide] | 200 to 1000 nM
CC(=O)Nc1c[nH]c2ccc(CCOc3ccc(OC(F)(F)F)c(F)c3)cc12 [Compound 438, N-(5-{2-[3-fluoro-4-(trifluoromethoxy)phenoxy]ethyl}-1H-indol-3-yl)acetamide] | 40 to 200 nM
CC(=O)Nc1c[nH]c2ccc(CCOc3cncc(C(F)F)c3)cc12 [Compound 439, N-[5-(2-{[5-(difluoromethyl)pyridin-3-yl]oxy}ethyl)-1H-indol-3-yl]acetamide] | 5000 to 100000 nM
CC(=O)Nc1c[nH]c2ccc(CCOc3ccc(C(F)(F)F)cc3C#N)cc12 [Compound 440, N-(5-{2-[2-cyano-4-(trifluoromethyl)phenoxy]ethyl}-1H-indol-3-yl)acetamide] | 1000 to 5000 nM
CC(=O)Nc1c[nH]c2ccc(CCOc3cccc(CC(F)(F)F)c3)cc12 [Compound 441, N-(5-{2-[3-(2,2,2-trifluoroethyl)phenoxy]ethyl}-1H-indol-3-yl)acetamide] | 40 to 200 nM
CC(=O)Nc1c[nH]c2ccc(CCOc3ccc(CC(F)(F)F)cc3)cc12 [Compound 442, N-(5-{2-[4-(2,2,2-trifluoroethyl)phenoxy]ethyl}-1H-indol-3-yl)acetamide] | 40 to 200 nM

Reference: US12503436B2, “Compounds and compositions for treating conditions associated with STING activity” (NOVARTIS PHARMA AG, priority 2021, dated 2025)
